From patent US12319655B2, “RAF kinase inhibitors and methods of use thereof” (Deciphera Pharmaceuticals, LLC, priority 2021, dated 2025)

How the values were obtained:
Miapaca-2 cells = assay: MiaPaca-2 Cell Proliferation Assay (2); type: cell-based; settings: Homo sapiens, MIA PaCa-2, single agent
Description: MiaPaca-2 Cell Proliferation Assay (2)
Miapaca-2 cells (catalog #CRL-1420) are obtained from the American Type Culture Collect (ATTC, Manassas, VA). Briefly, cells were grown in DMEM supplemented with 10% characterized fetal bovine serum (Invitrogen, Carlsbad, CA), 2.5% New Zealand sourced horse serum and 1% Penicillin/Streptomycin/L-Glutamine at 37° C., 5% CO2, and 95% humidity. Cells are expanded until reaching 70-95% confluency at which point they are sub-cultured or harvested for assay use. A serial dilution of test compound is dispensed into a 384-well black clear bottom plate in triplicate. Seven hundred fifty cells are added per well in 50 μL complete growth medium in the 384-well plate. Plates are incubated for 67-72 h at 37° C., 5% CO2, and 95% humidity. At the end of the incubation, 10 μL of a 440 μM solution of resazurin (Sigma, St. Louis, MO) in PBS is added to each well of the plate and plates are incubated for an additional 5-6 h at 37° C., 5% CO2, and 95% humidity. Plates are read on a Synergy2 or equivalent reader (Biotek, Winooski VT) using an excitation of 540 nm and an emission of 600 nm. Data is analyzed using Prism software (GraphPad, San Diego, CA) to calculate IC50 values.

WM3629 cells = assay: WM3629 Cell Proliferation Assay (2); type: cell-based
Description: WM3629 Cell Proliferation Assay (2)
WM3629 cells (#WM3629-01-0001) are obtained from Rockland Immunochemicals Inc (Gilbertsville, PA). Briefly, cells were grown in MCDB 153 medium (Sigma, #M7403, St. Louis, MO) supplemented with 20% Leibovitz's L-15 (ThermoFisher #11415-064, Waltham, MA), 2% heat inactivated fetal bovine serum (ThermoFisher, #A3840001, Waltham, MA), 5 μg/mL Insulin (Bovine Pancreas) (Sigma, #I0516, St. Louis, MO), 1.68 mM Calcium Chloride (Sigma, #C-34006, St. Louis, MO) and 1% Penicillin/Streptomycin/L-Glutamine (ThermoFisher #10378016, Waltham, MA) at 37° C., 5% CO2, and 95% humidity. Cells are expanded until reaching 70-95% confluency at which point they are sub-cultured or harvested for assay use. Using the Beckman Coulter Echo 650, a serial dilution of test compound is dispensed into a 384-well black clear bottom plate in triplicate. One thousand one hundred twenty-five cells are added per well in 50 μL complete growth medium in the 384-well plate. Plates are incubated for 67-72 hours at 37° C., 5% CO2, and 95% humidity. At the end of the incubation, 10 μL of a 440 μM solution of resazurin (Sigma, #199303, St. Louis, MO) in PBS is added to each well of the plate and plates are incubated for an additional 3-6 hours at 37° C., 5% CO2, and 95% humidity. Plates are read on a Synergy2 or equivalent reader (Biotek, Winooski VT) using an excitation of 540 nm and an emission of 600 nm. Data is analyzed using Prism software (GraphPad, San Diego, CA) to calculate IC50 values.

Row | IC50 (Miapaca-2 cells) [µM] | SMILES | IC50 (WM3629 cells) [nM]
1 | 1 to 10 | CNC(=O)c1cc(-c2cncc(-c3cc(NC(=O)c4ccnc(C(C)C)c4)ccc3C)c2)ccn1 [Example 445] | ≤ 100
2 | 1 to 10 | CNC(=O)c1cc(-c2cncc(-c3cc(NC(=O)c4ccnc(C(C)C)c4)ccc3C)c2)ncn1 [Example 446] | ≤ 100
3 | 1 to 10 | CNC(=O)c1cc(-c2cc(-c3cc(NC(=O)c4ccnc(C(C)(C)F)c4)ccc3C)c(F)cn2)ccn1 [Example 469] | ≤ 100
4 | 1 to 10 | CNC(=O)c1cc(-c2cc(-c3cc(NC(=O)c4ccnc(C(C)(C)F)c4)ccc3C)cc(C)n2)ccn1 [Example 470] | ≤ 100
5 | 1 to 10 | Cc1ccc(NC(=O)c2ccnc(C(C)(C)F)c2)cc1-c1ccnc(-c2ccnc(C(N)=O)c2)c1 [Example 476] | ≤ 100
6 | 1 to 10 | CNC(=O)c1cc(-c2cc(-c3cc(NC(=O)c4ccnc(C(C)(C)F)c4)ccc3F)ccn2)ccn1 [Example 479] | ≤ 100
7 | 1 to 10 | CNC(=O)c1cc(-c2cc(-c3cc(NC(=O)c4ccnc(C(C)(C)F)c4)cc(F)c3C)ccn2)ccn1 [Example 480] | ≤ 100
8 | 1 to 10 | CNC(=O)c1cc(-c2cc(-c3cc(NC(=O)c4ccnc(C(C)(C)F)c4)c(F)cc3F)ccn2)ccn1 [Example 482] | ≤ 100
9 | 1 to 10 | Cc1cc(-c2cc(NC(=O)c3ccnc(C(C)(C)F)c3)ccc2C)cc(-c2ccnc(C(N)=O)c2)n1 [Example 484] | ≤ 100
